Experimental data: patent US20250017859A1, “SOLID DISPERSION, PREPARATION METHOD, AND PHARMACEUTICAL COMPOSITION THEREOF” (Anxo Pharmaceutical Co., Ltd., priority 2023, published 2025)
In brackets after ≈: the same amount, converted by molar mass. Counter-ions that a name gives are not always drawn.

Key:
[1] = cited from earlier work
[2] = Dissolution test 1: solubility by paddle method in pH 6.0+0.01% SDS medium; assay type: physicochemical
Protocol: Dissolution tests of experimental group 1 to experimental group 28 produced by spray drying or hot melt extrusion, control group lurasidone HCl and lurasidone are performed to analyze the solubility of each experimental group and control group lurasidone HCl and lurasidone. The dissolution test is performed by paddle method in 500 mL of medium with a pH value of 6.0+0.01% SDS, in which a rotation speed is 100 rpm and a sampling time is 60 minutes.
For comparing the applicability of the carriers suitable for solid dispersion including lurasidone, solid dispersion of comparative group 1 (including crospovidone, a kind of common carrier ingredient) is prepared according to Example 1.2 (HME) and the weight ratio of table 12, and the solubility is tested according the abovementioned method of Example 1.3.1.

[3] = Animal test: pharmacokinetics in fasted rats; assay type: in vivo; conditions: male, Sprague-Dawley, rat, plasma; rats under fasting state; dose equal to 10 mg/kg lurasidone HCl
Protocol: Lurasidone HCl is used as control group, experimental groups 14-17, 22 and 28 are used as tested group, the pharmacokinetics of each group is evaluated in male Sprague-Dawley rats.
Specifically, control group and experimental groups 14-17, 22 and 28 are administrated to rats under fasting state, respectively, in which the dosage contains 10 mg/kg of lurasidone HCl or the amount of lurasidone equal to 10 mg/kg lurasidone HCl. The number of experimental rats in each group is three, and the sampling time is 0, 0.25, 0.5, 1, 1.5, 2, 4, 6, 8 and 24 hours for analyzing pharmacokinetic results, which are shown in table 15.

| Solubility ([2]; Table 11, paddle method, 500 mL medium pH 6.0+0.01% SDS, 100 rpm, sampling time 60 minutes) | Solubility ([2]; Table 12, carrier comparison PVAP vs crospovidone, method of Example 1.3.1) | Solubility ([2]; Table 11, paddle method, 500 mL medium pH 6.0+0.01% SDS, 100 rpm, sampling time 60 minutes, HCl) | Solubility ([2]; Table 12, carrier comparison PVAP vs crospovidone, method of Example 1.3.1, HCl) | AUC(0-inf) [3] | Cmax [3] | SMILES | solubility in water [1] |
| --- | --- | --- | --- | --- | --- | --- | --- |
| 0.09 µg/mL (≈ 0.183 µM) | 0.09 µg/mL (≈ 0.183 µM) | – | – | – | – | O=C1[C@@H]2[C@H]3CC[C@H](C3)[C@@H]2C(=O)N1C[C@@H]1CCCC[C@H]1CN1CCN(c2nsc3ccccc23)CC1 [Lurasidone] | lower than 0.1 mg/mL |
| – | – | 0.46 µg/mL | 0.46 µg/mL | 102 ng·h/mL | 32 ng/mL | O=C1[C@@H]2[C@H]3CC[C@H](C3)[C@@H]2C(=O)N1C[C@@H]1CCCC[C@H]1CN1CCN(c2nsc3ccccc23)CC1 [Lurasidone HCl] | – |
